Assays:
[1] = test system: rat aorta; test: Carbachol-induced relaxation of anisomycin-treated rat aorta; assay type: cell-based; details: rat aorta; anisomycin 200 μM, 1 h
Method: (§1) RA rings were suspended in a muscle bath and incubated with either buffer alone (Ctrl), Aniso (200 μM) for 1 h, or NiPp (500 μM) for 30 min followed by Aniso (200 μM) for 1 h. […] Proteins were extracted […] immunoblotted to examine p38MAPK phosphorylation. Quantification of relative phosphorylation to total p38MAPK level is shown. n=10, *p<0.05 in one-way ANOVA with Tukey post-test. NiPp restores endothelial dysfunction and reduced p38 MAPK phosphorylation induced by anisomycin in RA.
RA rings were suspended in a muscle bath and incubated with either buffer alone (Ctrl), Aniso (200 μM) for 1 h, or NiPp (500 μM) for 30 min followed by Aniso (200 μM) for 1 h. […] The force generated was determined and was adjusted to the weight and length of the tissue. Representative tracings from 1 out of 6 different rats are shown. […] Proteins were extracted and phosphorylation of p38 MAPK was determined by Western blot analysis. […] Data are expressed as mean±SD. […]
This produced the maximal force tension relationship as previously described. […] Contractile responses were defined by stress, calculated using force generated by tissues as follows: stress (×10^5 N/m^2)=force (g)×0.0987/area, where area=wet weight (mg)/at maximal length (mm)]/1.055.
Relaxation was calculated as percent change in stress compared to the maximal PE-induced contraction (set as 100%). […]

[2] = test system: p38 MAPK phosphorylation; test: p38 MAPK phosphorylation (Western blot) in anisomycin-treated rat aorta; assay type: cell-based; details: anisomycin 200 μM, 1 h
Method: as §1
RA rings were suspended in a muscle bath and incubated with either buffer alone (Ctrl), Aniso (200 μM) for 1 h, or NiPp (500 μM) for 30 min followed by Aniso (200 μM) for 1 h. […] The force generated was determined and was adjusted to the weight and length of the tissue. […] Proteins were extracted and phosphorylation of p38 MAPK was determined by Western blot analysis. […] Data are expressed as mean±SD.
p38 MAPK activation with Anisomycin. […] After treatments, endothelial-dependent relaxation was determined or tissues were snap-frozen for Western blot analysis.
Western blot Analysis. […] The protein-antibody complexes were visualized and quantified using the Odyssey Infrared Imaging System. Phosphorylation was calculated as a ratio of the phosphorylated protein to total protein and was then normalized to the untreated tissues (Ctrl) with the control value set as 1.0.

## COc1ccc(C[C@H]2NC[C@H](O)[C@H]2OC(C)=O)cc1 [Anisomycin, anisomycin, reference compound]
[1]
  effect of anisomycin alone on endothelial dependent relaxation: impaired
[2]
  effect of anisomycin alone on phosphorylation of p38 MAPK: increases

From patent US12583895B2, “Polypeptides for restoring endothelial function and methods of use thereof” (Vanderbilt University, priority 2019, dated 2026)
